Data: patent publication US4320052A, “Derivatives of A-30912A nucleus” (Eli Lilly and Company, priority 1980, dated 1982)
“And” between values parts separate entries of the source, which are not always exact repeats. Equal values may be shown once. Read-outs that look alike come from different tables or passages of the source. Numbered stars: 1 amine (or outer) side, 2 acyl side, 3 side chain; on linkers, the order of the positions; unused ones are H or OH. Bridge positions count the residues as written; N and C are the ends. Square brackets hold non-standard residues; d marks the D form. Peptide text beside a SMILES is read from it. * marks the point of attachment. Orn(4R-OH,5R-OH) = O=C([C@H](C[C@@H](O)[C@@H](O)N[*:3])N[*:1])[*:2]; hTyr(3S-OH,4S-OH) = N[C@H](C(=O)O)[C@H](O)[C@@H](O)c1ccc(O)cc1; Pro(3S-OH,4S-Me) = C[C@H]1CN[C@H](C(=O)O)[C@H]1O; Docosanoyl = CCCCCCCCCCCCCCCCCCCCCC(=O)*; Palmitoleoyl = CCCCCC/C=C\CCCCCCCC(=O)*; Oleoyl = CCCCCCCC/C=C\CCCCCCCC(=O)*; X4 = CCCCCCCC/C=C\CCCCCCCCCC(=O)*; Hyp = O=C(O)[C@@H]1C[C@@H](O)CN1; X6 = CCCCCC/C=C\CCCCCCCCCC(=O)*

What was measured:
Candida albicans A-26 [1] = experiment: In vivo activity against Candida albicans A-26 infection in mice; design: species or system mice infected with Candida albicans A-26; settings: mice, subcutaneous, schedule A (40, 20, 15, and 10 mg/kg), 0, 4, 24 hours; for ED50 / minimal effective dose: Candida albicans, A26, sc, 24 h; for ED50: increase in survival time, read-out: ED50; for minimal effective dose: read-out: Lowest Active Dose
Method: The results of in vivo tests to evaluate the effectiveness of the compound of Examples 1-16 against an infection caused by Candida albicans A-26 in mice are given in Table V, where activity is measured by the ED50 value (the dose in mg/kg. required to cure 50% of the test animals). Where an ED50 value was not obtained, activity is indicated by the lowest dose at which a significant anti-fungal effect is observed. In this test, groups of male albino mice (specific pathogen free), weighing 18 to 20 grams, are infected intravenously with Candida albicans A-26. The animals are X-irradiated 24 hours prior to infection at about 50 roentgens per minute for 8 minutes (400 total dose) to reduce immune responses to the infecting organism. At 0, 4, and 24 hours post infection each group of mice is given graded doses subcutaneously of the test compound as a suspension in 33% polyethylene glycol-water. The day of death for each animal is recorded.
mg/kg. Dosages given 0, 4, and 24 hours post injection as suspension of
test compound in 30% PEG--H2 O. Number of mice receiving test
compounds at each dosage level; 6 mice per group. Number of mice in
control (untreated) group: 10 mice per group.
**As measured by increase in survival time of treated animals versus
control, calculated by method of Reed v Mueuch, American J. Hygiene, 27,

Neurospora crassa 846 = experiment: Agar plate disc diffusion test (zone of inhibition); assay type: cell-based; settings: Neurospora crassa, 846; suspension in methanol 1 mg/ml, 7mm disc; 24-48 hours at 25-37° C.; read-out: Size of zone of inhibition, Neurospora crassa 846
Method: (§1) Tables II and III give the results of the testing in vitro of the compounds of Examples 1-16 by agar-plate disc-diffusion methods. In Table II activity is measured by the size (diameter in mm.) of the observed zone of inhibition of the microorganism produced by the test compound. In Table III, activity is measured by the minimal inhibitory concentration (MIC) of the substance (μg/dic) required to inhibit growth of the test organism. Table IV gives the results of the testing in vitro of the n-tridecanoyl derivative of A30912A nucleus (Formula III, R is n-C12 H25) against five strains of Candida albicans by the agar dilution method. In […] activity is measured by the minimal inhibitory concentration (MIC) of the substance (μg/ml) required to inhibit the test organism.
(§2) ^(a) Compounds were tested as suspension in methanol at a
(§3) concentration of 1 mg/ml. by dipping a 7mm disc into the suspension and
(§4) placing it on the agar surface. Incubation: 24-48 hours at 25-37°

Candida albicans A-26 [2] = experiment: as above; assay type: cell-based; settings: suspension in methanol 1 mg/ml, 7mm disc; 24-48 hours at 25-37° C.
Method: as §1, §2, §3, §4

[3] = tested on: Saccharomyces pastoranius X-52; experiment: as above; assay type: cell-based, Saccharomyces pastorianus; settings: X52, suspension in methanol 1 mg/ml, 7mm disc, 24-48 hours at 25-37° C., read-out: Size of zone of inhibition, Saccharomyces pastoranius X-52
Method: as §1, §2, §3, §4

[4] = Blood levels after oral administration in mice (bioassay vs. Aspergillus montevidensis A35137); settings: mouse, in vivo; for Blood Levels After Oral Administration In Mice: 240 min; for concentration at 4 h: po, 416 mg/kg
From the text: determined by bioassay vs. Aspergillus montevidensis A35137.

[5] = tested on: Trichophyton mentagrophytes #6; experiment: Agar plate disc diffusion test (MIC); assay type: cell-based; settings: 0.01M sodium borate pH 7.5; 20 μg/disc top, twofold dilutions; 24 hours, 30° C.
Method: as §1
(§5) *Compounds were suspended in 0.01M sodium borate solution, pH 7.5. The
(§6) compounds were tested at 20 μg/disc at top level and at twofold
(§7) dilutions until end points were reached. Incubation: 24 hours; 30°

Candida albicans A-26 [6] = experiment: Agar plate disc diffusion test (MIC); assay type: cell-based; settings: 0.01M sodium borate pH 7.5; 20 μg/disc top, twofold dilutions; 24 hours, 30° C.
Method: as §1, §5, §6, §7

[7] = tested on: Trichophyton mentagraphytes A-23; experiment: Agar plate disc diffusion test (zone of inhibition); assay type: cell-based, Trichophyton mentagrophytes; settings: A23, suspension in methanol 1 mg/ml, 7mm disc
Method: as §1, §2, §3, §4

[8] = 24-48 hours at 25-37° C., read-out: Size of zone of inhibition, Trichophyton mentagraphytes A-23

Row | Blood Levels After Oral Administration In Mice [4] | MIC, Trichophyton mentagrophytes #6 [5] | MIC, Candida albicans A-26 (Candida albicans A-26 [6]) | concentration at 4 h [4] | Structure (SMILES) | ED50 (Candida albicans A-26 [1]) | minimal effective dose (Candida albicans A-26 [1]) | zone of inhibition at 1000 µg/mL (Neurospora crassa 846) | Size of zone of inhibition, Candida albicans A-26 (Candida albicans A-26 [2]) | zone of inhibition at 1000 µg/mL [3] | zone of inhibition at 1000 µg/mL [7, 8] | zone of inhibition at 1000 µg/mL ([7]; *distinct measurable zone of inhibition with regrowth of organism around disc, read-out: Size of zone of inhibition, Trichophyton mentagraphytes A-23 (*)) | Lowest Active Dose (Candida albicans A-26 [1])
1 | – | – | 1.25 μg/disc and 2.5 μg/disc | – | CCCCCCCC/C=C\CCCCCCCCCC(=O)N[C@H]1C[C@@H](O)[C@@H](O)NC(=O)[C@@H]2[C@@H](O)[C@@H](C)CN2C(=O)[C@H]([C@@H](C)O)NC(=O)[C@H]([C@H](O)[C@@H](O)c2ccc(O)cc2)NC(=O)[C@@H]2C[C@@H](O)CN2C(=O)[C@H]([C@@H](C)O)NC1=O [Example 14] (X4-[Orn(4R-OH,5R-OH)]T[Hyp][hTyr(3S-OH,4S-OH)]T[Pro(3S-OH,4S-Me)]; lactam 1-C) | – | 10 mg/kg | 18 mm | 22 mm | 18 mm | – | 23 mm | –
2 | 0 ng/mL | – | 0.625 μg/disc | – | CCCCCCCC/C=C\CCCCCCCC(=O)N[C@H]1C[C@@H](O)[C@@H](O)NC(=O)[C@@H]2[C@@H](O)[C@@H](C)CN2C(=O)[C@H]([C@@H](C)O)NC(=O)[C@H]([C@H](O)[C@@H](O)c2ccc(O)cc2)NC(=O)[C@@H]2C[C@@H](O)CN2C(=O)[C@H]([C@@H](C)O)NC1=O [Example 7] (Oleoyl-[Orn(4R-OH,5R-OH)]T[Hyp][hTyr(3S-OH,4S-OH)]T[Pro(3S-OH,4S-Me)]; lactam 1-C) | – | 10 mg/kg | 18 mm | 23 mm | 19 mm | 1 mm | – | 20 mg/kg

Second part, the compound before the results:

Row | Structure (SMILES) | Blood Levels After Oral Administration In Mice [4] | MIC, Trichophyton mentagrophytes #6 [5] | MIC, Candida albicans A-26 (Candida albicans A-26 [6]) | concentration at 4 h [4] | ED50 (Candida albicans A-26 [1]) | minimal effective dose (Candida albicans A-26 [1]) | zone of inhibition at 1000 µg/mL (Neurospora crassa 846) | Size of zone of inhibition, Candida albicans A-26 (Candida albicans A-26 [2]) | zone of inhibition at 1000 µg/mL [3] | zone of inhibition at 1000 µg/mL [7, 8] | zone of inhibition at 1000 µg/mL ([7]; *distinct measurable zone of inhibition with regrowth of organism around disc, read-out: Size of zone of inhibition, Trichophyton mentagraphytes A-23 (*)) | Lowest Active Dose (Candida albicans A-26 [1])
3 | CCCCCCCCCCCCCCCCCCCCCC(=O)N[C@H]1C[C@@H](O)[C@@H](O)NC(=O)[C@@H]2[C@@H](O)[C@@H](C)CN2C(=O)[C@H]([C@@H](C)O)NC(=O)[C@H]([C@H](O)[C@@H](O)c2ccc(O)cc2)NC(=O)[C@@H]2C[C@@H](O)CN2C(=O)[C@H]([C@@H](C)O)NC1=O [Example 15] (Docosanoyl-[Orn(4R-OH,5R-OH)]T[Hyp][hTyr(3S-OH,4S-OH)]T[Pro(3S-OH,4S-Me)]; lactam 1-C) | 0 ng/mL | 5 μg/disc | 5.0 μg/disc | – | > 40 mg/kg | > 40 mg/kg | 15 mm | 12 mm | 19 mm | 20 mm | – | –
4 | CCCCCC/C=C\CCCCCCCCCC(=O)N[C@H]1C[C@@H](O)[C@@H](O)NC(=O)[C@@H]2[C@@H](O)[C@@H](C)CN2C(=O)[C@H]([C@@H](C)O)NC(=O)[C@H]([C@H](O)[C@@H](O)c2ccc(O)cc2)NC(=O)[C@@H]2C[C@@H](O)CN2C(=O)[C@H]([C@@H](C)O)NC1=O [Example 9] (X6-[Orn(4R-OH,5R-OH)]T[Hyp][hTyr(3S-OH,4S-OH)]T[Pro(3S-OH,4S-Me)]; lactam 1-C) | – | < 0.039 μg/disc | 0.312 μg/disc | 4200 ng/mL | > 40 mg/kg | 40 mg/kg | – | – | – | – | – | –
5 | CCCCCC/C=C\CCCCCCCC(=O)N[C@H]1C[C@@H](O)[C@@H](O)NC(=O)[C@@H]2[C@@H](O)[C@@H](C)CN2C(=O)[C@H]([C@@H](C)O)NC(=O)[C@H]([C@H](O)[C@@H](O)c2ccc(O)cc2)NC(=O)[C@@H]2C[C@@H](O)CN2C(=O)[C@H]([C@@H](C)O)NC1=O [Example 4] (Palmitoleoyl-[Orn(4R-OH,5R-OH)]T[Hyp][hTyr(3S-OH,4S-OH)]T[Pro(3S-OH,4S-Me)]; lactam 1-C) | – | < 0.039 μg/disc | – | 190 ng/mL | > 40 mg/kg | 20 mg/kg | – | – | – | – | – | –
